Source: patent publication US7811817B2, “Establishment of a human embryonic stem cell line using mammalian cells” (Reliance Life Sciences Pvt. Ltd., priority 2005, dated 2010)

Key:
[1] = tested on: HepG2, a human hepatocarcinoma cell line; assay: Exposure of HepG2 cells to carbon tetrachloride, enzyme release into supernatant (hepatotoxicity model); type: cell-based
[2] = tested on: mouse ES cell-derived hepatocytes; assay: In vitro hepatotoxicity model using hepatocytes differentiated from mouse ES cells, enzyme release into supernatant; type: cell-based; conditions: pretreatment 24 hr, 25 μM; 0.6% CCl4 for 180 minutes
Experimental: Hepatocytes were differentiated from mouse ES cells and exposed to carbon tetrachloride (0.6%) for 180 minutes in the absence and presence of N-acetylcysteine (NAC), an antioxidant (25 μM). Levels of the following enzymes were determined by biochemical methods: Panel A: SGOT; Panel B: SGPT; Panel C: ALP; and Panel D: LDH.
Mouse ES cells were differentiated into hepatocytes by the formation of EBs in a medium without LIF. After 4 days in suspension, 15-20 EBs were plated onto 35 mm culture dishes pre-coated with 1% matrigel (BD Biosciences, USA), and allowed to differentiate for 20-25 days. Concentration of growth factors, cytokines (e.g., bone morphogenetic proteins (BMP2 and BMP4), hepatocyte growth factor (HGF), acidic-fibroblast growth factor (aFGF), and basic-FGF (bFGF)) and corticosteroids (e.g., dexamethasone) were optimized for hepatic differentiation. The differentiated cells obtained were confirmed to be hepatocytes by checking the positive expression of hepatic markers by RT-PCR and immunocytochemistry. […]
The cell supernatant was used for the determination of SGPT, SGOT, ALP, and LDH levels, per the manufacturer's protocol. […] The samples were analyzed using a Konelab-20i autoanalyser (Thermo Clinical Lab Systems, Finland). The levels were expressed as units/Liter.

Row | SMILES | time of maximum release of SGOT, SGPT, ALP and LDH ([1]; 0.6% CCl4) | SGOT, SGPT, ALP and LDH levels (enzyme release, hepatocyte damage) ([1]; 0.6% CCl4, exposure 30-240 minutes, cell supernatant) | effect on CCl4-induced increase in release of SGOT, SGPT, ALP and LDH [2]
1 | ClC(Cl)(Cl)Cl [CCl4, carbon tetrachloride] | 180 min | time-dependent increases | –
2 | CC(=O)N[C@@H](CS)C(=O)O [N-acetylcysteine] | – | – | effectively blocked the increase in the release of these enzymes
